{"source": "PubChem BioAssay AID1259407", "about": "(Chemical Carcinogenesis Research Information System (CCRIS), 2018)", "system": "CCRIS mutagenicity, Ames/micronucleus/aberration tests", "test": "CCRIS mutagenicity studies", "conditions": "Test System: AMES SALMONELLA TYPHIMURIUM", "key": {"[1]": {"conditions": "Strain/Indicator: TA98, Metabolic Activation: NONE, Method: PREINCUBATION"}, "[2]": {"conditions": "Strain/Indicator: TA98, Metabolic Activation: NONE, Method: STANDARD PLATE"}, "[3]": {"conditions": "Strain/Indicator: TA100, Metabolic Activation: NONE, Method: STANDARD PLATE"}, "[4]": {"conditions": "Strain/Indicator: TA100, Metabolic Activation: NONE, Method: PREINCUBATION"}}, "note": "The source made the active and inactive calls. How the calls were made is not given here.", "data": [{"smiles": "C1=C2c3ccccc3CCC2CCC1", "note": "(configuration not stated)", "values": [{"measurement": "mutagenic call", "setting": "Strain/Indicator: TA98, Metabolic Activation: RAT, LIVER, S-9, SODIUM PHENOBARBITAL AND BETA-NAPHTHOFLAVONE, Method: STANDARD PLATE", "value": "active; positive"}, {"measurement": "mutagenic call", "setting": "Strain/Indicator: TA100, Metabolic Activation: RAT, LIVER, S-9, SODIUM PHEOBARBITAL AND BETA-NAPHTHOFLAVONE, Method: STANDARD PLATE", "value": "active; positive"}]}, {"smiles": "CC(C)(C)NC(=O)C=Cc1ccc([N+](=O)[O-])o1", "values": [{"measurement": "mutagenic call", "setting": "[1]", "value": "active; positive"}]}, {"smiles": "Brc1ccc2c(c1)[C@@H]1O[C@@H]1[C@H]1CCCC[C@H]21", "values": [{"measurement": "mutagenic call", "setting": "[2]", "value": "inactive; negative"}, {"measurement": "mutagenic call", "setting": "[3]", "value": "inactive; negative"}]}, {"smiles": "CC(C)(C)c1ccc(OCC2CO2)cc1", "note": "(configuration not stated)", "values": [{"measurement": "mutagenic call", "setting": "Strain/Indicator: TA98, Metabolic Activation: HAMSTER, LIVER, S-9, AROCLOR 1254 (30%), Method: PREINCUBATION", "value": "inactive; negative"}, {"measurement": "mutagenic call", "setting": "[1]", "value": "inactive; negative"}, {"measurement": "mutagenic call", "setting": "Strain/Indicator: TA98, Metabolic Activation: RAT, LIVER, S-9, AROCLOR 1254 (30%), Method: PREINCUBATION", "value": "inactive; negative"}, {"measurement": "mutagenic call", "setting": "Strain/Indicator: TA100, Metabolic Activation: HAMSTER, LIVER, S-9, AROCLOR 1254 (30%), Method: PREINCUBATION", "value": "inactive; negative"}, {"measurement": "mutagenic call", "setting": "[4]", "value": "active; positive"}, {"measurement": "mutagenic call", "setting": "Strain/Indicator: TA100, Metabolic Activation: RAT, LIVER, S-9, AROCLOR 1254 (30%), Method: PREINCUBATION", "value": "inactive; negative"}, {"measurement": "mutagenic call", "setting": "Strain/Indicator: TA1535, Metabolic Activation: HAMSTER, LIVER, S-9, AROCLOR 1254 (30%), Method: PREINCUBATION", "value": "inactive; negative"}, {"measurement": "mutagenic call", "setting": "Strain/Indicator: TA1535, Metabolic Activation: NONE, Method: PREINCUBATION", "value": "inactive; negative"}, {"measurement": "mutagenic call", "setting": "Strain/Indicator: TA1535, Metabolic Activation: RAT, LIVER, S-9, AROCLOR 1254 (30%), Method: PREINCUBATION", "value": "inactive; negative"}, {"measurement": "mutagenic call", "setting": "Strain/Indicator: TA1537, Metabolic Activation: HAMSTER, LIVER, S-9, AROCLOR 1254 (30%), Method: PREINCUBATION", "value": "inactive; negative"}, {"measurement": "mutagenic call", "setting": "Strain/Indicator: TA1537, Metabolic Activation: NONE, Method: PREINCUBATION", "value": "inactive; negative"}, {"measurement": "mutagenic call", "setting": "Strain/Indicator: TA1537, Metabolic Activation: RAT, LIVER, S-9, AROCLOR 1254 (30%), Method: PREINCUBATION", "value": "inactive; negative"}]}, {"smiles": "COc1cc(C(C)=O)ccc1O", "values": [{"measurement": "mutagenic call", "setting": "Strain/Indicator: TA97, Metabolic Activation: NONE, Method: PREINCUBATION", "value": "inactive; negative"}, {"measurement": "mutagenic call", "setting": "Strain/Indicator: TA97, Metabolic Activation: RAT, LIVER, S-9, AROCLOR 1254, Method: PREINCUBATION", "value": "inactive; negative"}, {"measurement": "mutagenic call", "setting": "[1]", "value": "inactive; negative"}, {"measurement": "mutagenic call", "setting": "Strain/Indicator: TA98, Metabolic Activation: RAT, LIVER, S-9, AROCLOR 1254, Method: PREINCUBATION", "value": "inactive; negative"}, {"measurement": "mutagenic call", "setting": "[4]", "value": "inactive; negative"}, {"measurement": "mutagenic call", "setting": "Strain/Indicator: TA100, Metabolic Activation: RAT, LIVER, S-9, AROCLOR 1254, Method: PREINCUBATION", "value": "inactive; negative"}, {"measurement": "mutagenic call", "setting": "Strain/Indicator: TA102, Metabolic Activation: NONE, Method: PREINCUBATION", "value": "inactive; negative"}, {"measurement": "mutagenic call", "setting": "Strain/Indicator: TA102, Metabolic Activation: RAT, LIVER, S-9, AROCLOR 1254, Method: PREINCUBATION", "value": "inactive; negative"}]}, {"smiles": "O=[N+]([O-])c1ccc(N=N/C(=N\\Nc2ccc(I)cc2)c2ccccc2)cc1", "values": [{"measurement": "mutagenic call", "setting": "Strain/Indicator: TA97, Metabolic Activation: NONE, Method: SPOT TEST", "value": "inactive; negative"}, {"measurement": "mutagenic call", "setting": "Strain/Indicator: TA97, Metabolic Activation: RAT, LIVER, S-9, PHENOBARBITAL, Method: SPOT TEST", "value": "inactive; negative"}, {"measurement": "mutagenic call", "setting": "[1]", "value": "inactive; negative"}, {"measurement": "mutagenic call", "setting": "Strain/Indicator: TA98, Metabolic Activation: NONE, Method: SPOT TEST", "value": "inactive; negative"}, {"measurement": "mutagenic call", "setting": "Strain/Indicator: TA98, Metabolic Activation: RAT, LIVER, S-9, PHENOBARBITAL, Method: PREINCUBATION", "value": "inactive; negative"}, {"measurement": "mutagenic call", "setting": "Strain/Indicator: TA98, Metabolic Activation: RAT, LIVER, S-9, PHENOBARBITAL, Method: SPOT TEST", "value": "inactive; negative"}, {"measurement": "mutagenic call", "setting": "[4]", "value": "inactive; negative"}, {"measurement": "mutagenic call", "setting": "Strain/Indicator: TA100, Metabolic Activation: NONE, Method: SPOT TEST", "value": "inactive; negative"}, {"measurement": "mutagenic call", "setting": "Strain/Indicator: TA100, Metabolic Activation: RAT, LIVER, S-9, PHENOBARBITAL, Method: PREINCUBATION", "value": "inactive; negative"}, {"measurement": "mutagenic call", "setting": "Strain/Indicator: TA100, Metabolic Activation: RAT, LIVER, S-9, PHENOBARBITAL, Method: SPOT TEST", "value": "inactive; negative"}, {"measurement": "mutagenic call", "setting": "Strain/Indicator: TA102, Metabolic Activation: NONE, Method: SPOT TEST", "value": "inactive; negative"}, {"measurement": "mutagenic call", "setting": "Strain/Indicator: TA102, Metabolic Activation: RAT, LIVER, S-9, PHENOBARBITAL, Method: SPOT TEST", "value": "inactive; negative"}]}, {"smiles": "COc1cc(N)c(C)cc1N", "values": [{"measurement": "mutagenic call", "setting": "[2]", "value": "inactive; negative"}, {"measurement": "mutagenic call", "setting": "Strain/Indicator: TA98, Metabolic Activation: RAT, LIVER, S-9, AROCLOR 1254, Method: STANDARD PLATE", "value": "inactive; negative"}, {"measurement": "mutagenic call", "setting": "[3]", "value": "inactive; negative"}, {"measurement": "mutagenic call", "setting": "Strain/Indicator: TA100, Metabolic Activation: RAT, LIVER, S-9, AROCLOR 1254, Method: STANDARD PLATE", "value": "inactive; negative"}, {"measurement": "mutagenic call", "setting": "Strain/Indicator: TA1535, Metabolic Activation: NONE, Method: STANDARD PLATE", "value": "inactive; negative"}, {"measurement": "mutagenic call", "setting": "Strain/Indicator: TA1535, Metabolic Activation: RAT, LIVER, S-9, AROCLOR 1254, Method: STANDARD PLATE", "value": "inactive; negative"}, {"measurement": "mutagenic call", "setting": "Strain/Indicator: TA1537, Metabolic Activation: NONE, Method: STANDARD PLATE", "value": "inactive; negative"}, {"measurement": "mutagenic call", "setting": "Strain/Indicator: TA1537, Metabolic Activation: RAT, LIVER, S-9, AROCLOR 1254, Method: STANDARD PLATE", "value": "inactive; negative"}, {"measurement": "mutagenic call", "setting": "Strain/Indicator: TA1538, Metabolic Activation: NONE, Method: STANDARD PLATE", "value": "inactive; negative"}, {"measurement": "mutagenic call", "setting": "Strain/Indicator: TA1538, Metabolic Activation: RAT, LIVER, S-9, AROCLOR 1254, Method: STANDARD PLATE", "value": "inactive; negative"}]}]}
